Experimental data published in patent US6946447B2, “MDM2-specific antisense oligonucleotides” (Hybridon, Inc., priority 1997, dated 2005).

Legend:
p53 = experiment: Nuclear p53 level by immunofluorescence staining with Pab1801; format: cell-based, human; details: MCF-7 cells, 200 nM, 20 hr
DNA synthesis = DNA synthesis by BrdU incorporation normalized to viable cells; format: cell-based; details: cell lines that do not undergo significant apoptosis, 100 nM, 20 hr (FIG. 15)
MDM2 [1] = experiment: MDM2 protein level by immunoprecipitation/Western blot in oligonucleotide-treated cells; format: cell-based, human; details: JAR cells, 18 h, Lipofectin 7 μg/ml, Western blot (FIG. 2A)
JAR cells = experiment: Induction of apoptosis / cell death in JAR cells; format: cell-based, human; details: 400 nM, 30 h, Lipofectin
Description: JAR cells (ATCC) were grown in DMEM medium supplemented with 1% FBS according to standard cell culture techniques. Cells were then treated for 30 hours with growth medium containing 400 nM of either antisense oligonucleotide AS5 (SEQ ID NO:28) complementary to a portion of MDM2-encoding RNA or control oligonucleotide M4 (SEQ ID NO:5), and 7 μg/ml lipofectin (Gibco BRL Paisley, UK). Treated cells were then photographed using a phase contrast microscope.
JAR cells were treated for 24 hours as described in Example 6. Floating cells were harvested and chromosomal DNA was extracted according to standard techniques (Liu et al., Cell 86:147-157 (1996)). Purified DNA was then analyzed by agarose gel electrophoresis on a 2% agarose gel. Following electrophoresis the gel was stained with 0.5 μg/ml ethidium bromide.

MDM2 [2] = details: JAR and SJSA cells, 100-400 nM, Lipofectin; cited from earlier work

| Substance | nuclear p53 staining (p53) | rate of DNA synthesis (BrdU incorporation) (DNA synthesis) | inhibition of MDM2 expression (MDM2 [1]) | cell death / apoptosis morphology (JAR cells) | decrease of MDM2 protein levels (MDM2 [2]) |
| --- | --- | --- | --- | --- | --- |
| K: control oligonucleotide complementary to an ion channel, 5′-CAGAGCCTTCATCTTCCCAG-3′; SEQ ID NO:6 (chemistry not given here) | did not induce p53 | not observed | not observed | – | – |
| M4: mismatch control oligonucleotide of AS5 with four mismatches, 5′-GATGACTCACACCATCATGG-3′; SEQ ID NO:5 (listed as DNA, chemistry not given here) [Oligo M4] | – | – | not observed | significantly less apoptosis | no effect |
